Source: US20240299321A1, “METHODS TO SENSITIZE CANCER CELLS AND STANDARDIZED SCREENING ASSAY FOR IMMUNOTHERAPY” (THE TRUSTEES OF INDIANA UNIVERSITY, priority 2020, published 2024)

Legend:
EO771 tumors = experiment: EO771 orthotopic breast tumor model in immunocompetent C57BL/6 mice; type: in vivo; details: for expression of GZMB, IFNγ and TNFα in the tumor-infiltrated CD8+ T cells / tumor infiltration of T cells (total CD3+, CD4+ and CD8+): 20 mg kg-1; for expression of GZMB, IFNγ and TNFα in the tumor-infiltrated CD8+ T cells: FIG. 3E; for tumor infiltration of T cells (total CD3+, CD4+ and CD8+): flow cytometry; for tumor growth and weight: 20 mg kg-1 i.p., 3 times/week for 2 weeks; for tumor growth and weight / tumor cell proliferation (Ki67+): vs control group; for numbers of apoptotic tumor cells (cleaved Caspase 3+) / tumor cell proliferation (Ki67+): IHC of tumor tissue; for anti-tumor activity after depletion of CD4+ T cells: anti-CD4 10 mg kg-1 + drug 20 mg kg-1; for anti-tumor activity after depletion of CD8+ T cells: anti-CD8 10 mg kg-1 + drug 20 mg kg-1; for IFNγ and TNFα secretion by CD8+ T cells of drug-treated tumors: upon stimulation (PMA and ionomycin)
Experimental: (§1) T cell effector function analysis: We measured cytokine and cytolytic granule production (IFNγ, GZMB and TNFα) of CD8+ T cells from mouse tumor samples and tumor organoid-T cell co-culture. Briefly, CD8+ T cells were placed into the 24-well plate at 1×10^6 cells/well, stimulated with 1 μM ionomycin and 50 ng ml-1 phorbol 12-myristate 13-acetate (PMA) (Sigma-Aldrich) for 4 h, in the presence of 5 μg ml-1 Brefeldin A (BFA), with the purpose to amplify the expression of intracellular cytokines61. The cells were stained with APC/Cy7-conjugated anti-CD8a (Biolegend) for 15 min and then fixed by 4% PFA. After washing, cells were stained with PerCP/Cy7-conjugated anti-GZMB, APC-conjugated anti-IFNγ and PE-conjugated anti-TNFα (Biolegend) for 15 min. In flow cytometric analyses, T cells stained with isotype control antibodies were used as negative controls for gating the cytokine or granule-producing cells. For T cells from tumor organoid-T cell co-culture, tumor organoids were first digested into single cells with TrypLE Express at 37° C. before APC/Cy7-conjugated anti-CD8a staining. In the IFNγ and TNFα secretion assay (Biolegend), T cells were stimulated with ionomycin and PMA without the presence of BFA. The media were collected for ELISA assay.
Immunohistochemistry (IHC) and Immunofluorescence (IF) analysis of tumor organoids: Tumor organoids were gently centrifuged at 100 rcf from organoid culture medium and then embedded in 2% agar. Tumor organoids were fixed in 4% paraformaldehyde solution for overnight at room temperature. The samples were replaced with 70% ethanol and later embedded in paraffin blocks. Paraffin sections were cut at 5 μm thickness, attached on slides, heated at 60° C. for 1 h and then overnight at 37° C. The slides were stained with hematoxylin and eosin (H&E). IHC staining follows the protocol described62. Mouse-specific antibodies for CD8α (Cell Signaling Technology, clone D4W2Z, 1:400 dilution), cleaved caspase3 (Cell Signaling Technology, clone D175, 1:400 dilution) and Ki67 (Cell Signaling Technology, clone D3B5, 1:400 dilution) were used for IHC staining. The DAB peroxidase substrate kit (Vector laboratories Inc.) was used to visualize the antibodies. For IF analysis, the sample slides were blocked 3% BSA for 40 min after hydration. The slides were stained with primary antibodies including EpCAM (Abcam, 1:400 dilution), FITC-conjugated anti-α-SMA (Genetex, 1:400 dilution) and AF594-conjugated anti-CD31 (Biolegend) for 1 h. For EpCAM staining, the slide was further stained with secondary antibody Alexa Fluor 647-conjugated anti-rabbit IgG (Biolegend, 1:200) for 40 min. The fluorescence images were captured under a Leica DM4B microscope.
Animal studies: All animal experiments were performed in accordance with the National Institutes of Health's Animal Use Guidelines and protocols approved by the Animal Care and Use Committee of Indiana University School of Medicine. To examine the tumorigenic potential of tumor organoids, tumor organoids with different sizes (diameter of 30-70, 70-150, and 150-500 μm) were orthotopically injected into fat pad of the 4th mammary gland in female C57BL/6 mice. Each mouse was injected with a total of 2×10^5 tumor cells. 5 mice were used in each group. Tumors were measured in two dimensions using a manual caliper. Tumor volume was calculated using the following formula: V=0.5×length×width×width. Tumor volume was measured every 3 days. Tumors were harvested 22 days after injection. The tumor growth, volume and weight were analyzed. To evaluate the anti-tumor effect of drugs in immunocompetent C57BL/6 mice and immunodeficient nude (NU/J) mice, 2×10^5 EO771 cells were orthotopically injected into fat pad of the 4th mammary gland in female mice. […]

[1] = tested on: OVA-specific CD8+ T cells; experiment: T cell effector function in EO771 organoid co-culture; type: cell-based, mouse; details: for IFNγ, GZMB and TNFα expression levels in the co-cultured CD8+ T cells: co-cultured with drug-treated tumor organoids; for secreted IFNγ and TNFα (ELISA): vs T cells co-cultured with untreated organoids
Experimental: as §1

OVA+ EO771 cells = experiment: H-2Kb presentation on OVA+ EO771 cells (flow cytometry, confocal); type: cell-based, mouse; details: for H-2Kb antigen presentation (confocal images): 1 μM, 48 h, FIG. 4E; for H-2Kb levels on EO771 cells (MFI): flow cytometry
Experimental: Flow Cytometry: Sample acquisition was done using LSR Fortessa X-20 or LSR Fortessa (BD Biosciences) and data were analyzed using FlowJo v10.6.0 software. Live/dead cells were assessed using SYTOX Blue (Invitrogen, Dilution 1:100). For cell staining involving cell permeabilization, the BD cytofix/cytoperm fixation permeabilization kit (BD Biosciences) was used. The PBS buffer containing 0.5% BSA and 10% FBS were used to dilute antibodies. The antibodies used in flow cytometrical analyses include: […] The compensation was performed using CompBeads for negative control (BD Biosciences), anti-mouse Ig,κ (BD Biosciences), anti-rat Ig,κ and anti-hamster Ig,κ (BD Biosciences). The beads were stained with the corresponding antibodies separately under the same conditions as the cells were stained in each experiment. SYTOX Blue reagent was used to stain dead cells. Half of the live cells were incubated at 60° C. for 2 min to enable membrane permeable and then mixed with the other half incubated at 37° C. The mixed cells were stained with SYTOX Blue for 15 mins and used for compensation. For all the data analysis, doublet exclusion was performed and only single cells were analyzed. Dead cell populations were also excluded from analysis if the experiment were not involved in cell killing. One million events per sample were collected for immune profiling analysis in the animal experiments. For all in vitro experiments, at least ten thousand events per sample were collected for flow cytometry analysis. Confocal Microscopy: OVA+ EO771 and NY-ESO-1+ MDA-MB-468 cells were seeded at 5×10^3 cell/well in the 8-well slide (Millicell EZ slide, […]) and treated with 1 μM drug (GSK-LSD1, CUDC-101 or BML-210) for 48 h. FITC-conjugated anti-mouse H-2Kb antibody (Biolegend, dilution 1:50) and FITC-conjugated anti-HLA-A2 (Biolegend, dilution 1:50) were used to stain OVA+ EO771 and NY-ESO-1+ MDA-MB-468 cells, respectively, for 2 h. For cell nucleus staining, cells were incubated with 0.5% Triton X-100/PBS for 10 min and stained with DAPI (Sigma-Aldrich, dilution 1:100) for 15 min. The slides were rinsed in PBS twice and mounted with ProLong Gold anti-fade mountant (Invitrogen, P36930). Fluorescence images were captured using Leica TCS SP8 (upright high speed multiphoton) confocal imaging system. 3-D images were analyzed by the Imaris x64 8.1.2 software.

Compound	expression of GZMB, IFNγ and TNFα in the tumor-infiltrated CD8+ T cells (EO771 tumors)	tumor infiltration of T cells (total CD3+, CD4+ and CD8+) (EO771 tumors)	tumor growth and weight (EO771 tumors)	numbers of apoptotic tumor cells (cleaved Caspase 3+) (EO771 tumors)	tumor cell proliferation (Ki67+) (EO771 tumors)	anti-tumor activity after depletion of CD4+ T cells (EO771 tumors)	anti-tumor activity after depletion of CD8+ T cells (EO771 tumors)	anti-tumor activity relative to the other candidates (EO771 tumors; in vitro and in vivo assays)	IFNγ and TNFα secretion by CD8+ T cells of drug-treated tumors (EO771 tumors)	IFNγ, GZMB and TNFα expression levels in the co-cultured CD8+ T cells [1]	secreted IFNγ and TNFα (ELISA) [1]	H-2Kb antigen presentation (confocal images) (OVA+ EO771 cells)	H-2Kb levels on EO771 cells (MFI) (OVA+ EO771 cells)	cytotoxicity of the CD8+ T cells in the tumors (EO771 tumors; immune analyses of treated tumors)
Nc1ccccc1NC(=O)CCCCCCC(=O)Nc1ccccc1 [BML-210]	up-regulated	higher tumor infiltration	significantly suppressed	increased	markedly lower	did not have much effect	abolished the anti-tumor activity	most potent anti-tumor activity	secreted more IFNγ and TNFα	remarkably up-regulated	much higher levels	boosted up the antigen presentation	much higher levels	
C#Cc1cccc(Nc2ncnc3cc(OC)c(OCCCCCCC(=O)NO)cc23)c1 [CUDC-101]	up-regulated	higher tumor infiltration	significantly suppressed	increased	markedly lower	did not have much effect	abolished the anti-tumor activity		secreted more IFNγ and TNFα	remarkably up-regulated	much higher levels	boosted up the antigen presentation	increased	
c1ccc([C@@H]2C[C@H]2NC2CCNCC2)cc1 [GSK-LSD1]		higher tumor infiltration of T cells	markedly suppressed	increased	much lower					remarkably up-regulated	much higher levels	boosted up the antigen presentation	increased	enhanced cytotoxicity of the CD8+ T cells
